In ChEMBL document CHEMBL3137667, “[Drug-induced liver injury; fourteenth updated edition of the bibliographic database of liver injuries and related drugs]” (Gastroenterol Clin Biol, 2004):

Key:
[1] = human
[2] = human; remark: listed apart in the source
[3] = human, serum
[4] = human; remark: listed apart in the source
[5] = human; remark: listed apart in the source
[6] = human, serum; remark: listed apart in the source
[7] = human; remark: listed apart in the source
[8] = human, serum, 4383 h
[9] = human; remark: listed apart in the source
[10] = Times to onset, minimal and maximal, observed in the indexed observations. [column 'DELAI' in source]; conditions: human
[11] = Highest frequency of moderate liver toxicity observed during clinical trials, expressed as a percentage. [column '% BIOL' in source]; conditions: human
[12] = human; remark: listed apart in the source
[13] = human; remark: listed apart in the source
[14] = Highest frequency of acute liver toxicity observed during clinical trials, expressed as a percentage. [column '% AIGUE' in source]; conditions: human
[15] = human; remark: listed apart in the source
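Wherever Hepatotoxicity (association with vascular disease) is given: count of indexed literature references reporting vascular liver injury in humans, e.g. peliosis hepatitis, hepatic veno-occlusive disease or Budd-Chiari syndrome.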
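Wherever Hepatotoxicity (benign tumour) is given: value is a count of indexed literature references citing a benign tumour confirmed by histopathology.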
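Wherever Hepatotoxicity (choleostasis) is given: human cholestatic liver injury, shown by histopathology or by peak ALT or AST elevation over alkaline phosphatase ratio below 2, value counts indexed literature reports.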
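Wherever Hepatotoxicity (chronic liver disease) is given: chronic liver injury confirmed by histopathology or persistently raised serum aminotransferase activity beyond 6 months, value given as the count of indexed literature references.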
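Wherever Hepatotoxicity (cirrhosis) is given: value is a count of indexed literature references reporting cirrhosis confirmed by histopathology.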
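Wherever Hepatotoxicity (cytolytic) is given: human cytolytic liver injury, shown by histopathology or by a ratio above 5 of peak ALT or AST elevation to alkaline phosphatase elevation, value counts indexed references.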
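Wherever Hepatotoxicity (granulomatous hepatitis) is given: value is a count of indexed literature references reporting granulomatous liver disease confirmed by histopathology.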
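Wherever Hepatotoxicity (malignant tumour) is given: malignant tumour confirmed by histopathology, value gives the count of indexed literature references reporting it.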
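Wherever Hepatotoxicity (severe hepatitis) is given: human clinical data: severe hepatitis, meaning potentially life-threatening liver failure or clinically observed cases, the value counts how many indexed literature references report it.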
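Wherever Hepatotoxicity (steatosis) is given: steatosis confirmed by histopathology, value is the count of indexed references.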

SMILES	Hepatotoxicity (cirrhosis) [1]	Hepatotoxicity (severe hepatitis) [2]	Hepatotoxicity (moderate) [3]	Hepatotoxicity (cytolytic) [4]	Hepatotoxicity (granulomatous hepatitis) [5]	Hepatotoxicity (acute) [6]	Hepatotoxicity (malignant tumour) [7]	Hepatotoxicity (chronic liver disease) [8]	Hepatotoxicity (steatosis) [9]	Hepatotoxicity (time to onset) [10]	Hepatotoxicity (moderate) [11]	Hepatotoxicity (benign tumour) [12]	Hepatotoxicity (choleostasis) [13]	Hepatotoxicity (acute) [14]	Hepatotoxicity (association with vascular disease) [15]	also measured
CC[C@H]1OC(=O)[C@H](C)[C@@H](O[C@H]2C[C@@](C)(OC)[C@@H](O)[C@H](C)O2)[C@H](C)[C@@H](O[C@@H]2O[C@H](C)C[C@H](N(C)C)[C@H]2O)[C@](C)(O)C[C@@H](C)/C(=N\OCOCCOC)[C@H](C)[C@@H](O)[C@]1(C)O [ROXITHROMYCIN]	0	2	38	7	0	10	0	0	0	4 days - 10 months	22.6%	0	6	0%	0	–
O=C(Oc1ccccc1C(=O)O)c1ccccc1O [SALSALATE]	0	0	1	2	0	2	0	0	0	1 day - 2 weeks	15%	0	0	5%	0	–
FCOC(C(F)(F)F)C(F)(F)F [SEVOFLURANE]	0	2	4	6	0	6	0	0	0	1 day - 11 days	40%	0	0	0%	0	–
CC(C)NCC(O)c1ccc(NS(C)(=O)=O)cc1 (stereo not given) [SOTALOL]	0	0	0	1	0	1	0	1	0	10 months	0%	0	0	0%	0	–
CN[C@@H]1[C@H](O)[C@H](NC)[C@H]2O[C@@]3(O)C(=O)C[C@@H](C)O[C@H]3O[C@@H]2[C@H]1O [SPECTINOMYCIN]	0	0	1	0	0	1	0	0	0	3 days	0%	0	1	0%	0	–
COc1cc(NS(=O)(=O)c2ccc(N)cc2)nc(OC)n1 [SULFADIMETHOXINE]	0	0	0	1	1	2	0	0	0	1 month - 2 months	0%	0	0	0%	0	–
Cc1nnc(NS(=O)(=O)c2ccc(N)cc2)s1 [SULFAMETHIZOLE]	0	0	0	2	0	4	0	0	0	1 month - 2 months	0%	0	1	0%	0	–
O=C1C(CC[S+]([O-])c2ccccc2)C(=O)N(c2ccccc2)N1c1ccccc1 (stereo not given) [SULFINPYRAZONE]	0	–	0	0	0	1	0	0	0	10 days	–	0	1	–	0	Hepatotoxicity (severe hepatitis) ([2]; Liver): 0; Hepatotoxicity (moderate) ([11]; Liver): 0%; Hepatotoxicity (acute) ([14]; Liver): 0%
CN1C(C(=O)Nc2ccccn2)=C(O)c2sccc2S1(=O)=O [TENOXICAM]	0	–	8	–	–	3	0	0	0	3 days - 5 days	–	0	–	–	0	Hepatotoxicity (severe hepatitis) ([2]; Liver): 0; Hepatotoxicity (cytolytic) ([4]; Liver): 2; Hepatotoxicity (granulomatous hepatitis) ([5]; Liver): 0; Hepatotoxicity (moderate) ([11]; Liver): 27%; Hepatotoxicity (choleostasis) ([13]; Liver): 2; Hepatotoxicity (acute) ([14]; Liver): 0%
COc1cc2nc(N3CCN(C(=O)C4CCCO4)CC3)nc(N)c2cc1OC (stereo not given) [TERAZOSIN]	0	0	1	0	0	1	0	0	0	4 months	1.9%	0	0	0%	0	–
S=P(N1CC1)(N1CC1)N1CC1 [THIOTEPA]	0	2	0	1	0	1	0	0	0	2 weeks	0%	0	1	5.3%	2	–
